# Measurements from patent US20240174649A1, “CULLIN-RING E3 UBIQUITIN LIGASE 4 INHIBITOR COMPOUNDS AND METHODS OF THEIR USE” (ICAHN SCHOOL OF MEDICINE AT MOUNT SINAI, priority 2021, published 2024).
# Tests used:
# ROC1-CUL4A = ROC1-CUL4A (Homo sapiens (Human), UniProt Q13619); test: 32P-Ub chain elongation by ROC1-CUL4A; format: biochemical; parameters: concentration or dose not given beside the values; conditions: relative to KH-4-43
# Experimental: The reaction was incubated for 5 min at 37° C. […] The reaction was incubated for 5 min at room temperature. In the second step (chase), the completed Cdc34b-Ub thiol ester reaction mixture was combined with one third of the completed mono-ubiquitination mixture. The final volume was adjusted to 10 μl with a mix that contained 50 mM Tris-HCl (pH 7.4), 0.5 mM DTT, 0.1 mg/ml of BSA, 5 mM MgCl2, and 2 mM ATP. Compounds were added where indicated. The chase reaction was incubated for 10 min at 37° C. The reaction products were separated by 4-20% SDS-polyacrylamide gel electrophoresis. The reaction scheme was identical to the one described above for FIGS. 12A-B. […] The reaction products, separated by SDS-PAGE, were visualized and analyzed by phospho-imaging using Typhoon 9500 scanner.
# ROC1-CUL1 = ROC1-CUL1 (Homo sapiens (Human), UniProt Q13616); test: Cullin-32P-Ub elongation assay with ROC1-CUL1; format: biochemical; conditions: as much as 150 μM
# ROC1-CUL4A CTD [1] = target: ROC1-CUL4A CTD (Homo sapiens (Human), UniProt Q13619); test: Ligand binding by Micro-Scale Thermophoresis (MST); conditions: MST
# Experimental: (§1) E3 ligase complex (˜2 nmol) was labeled with fluorescent dye using Monolith NT Protein Labeling Kit Red-NHS (Nanotemper) in the presence of 20 mM MES pH 6.0 and 150 mM NaCl. Excess dye was removed using the included gravity flow column and eluted in storage buffer containing 20 mM Tris-HCl, pH 7.4, 150 mM NaCl, and 10% glycerol. The fluorescent E3 complex (˜0.01-0.06 μM) was mixed with increasing amount of compound in a buffer (20 μl) that contains phosphate-buffered saline, 0.1% TWEEN-20 and 2% prionex. Following incubation at room temperature for 30 min, the reaction mixture loaded into premium coated capillaries and analyzed in the Monolith NT.115 machine (Nanotemper). Thermophoresis was recorded for each sample and binding curve was generated and Kd was calculated using the included software. For reactions where significant ligand specific fluorescence quenching occurred (verified by manufacturer's SDS Denaturation-test protocol), the initial fluorescence quenching data was used directly to calculate the binding curve and Kd.
# ROC1-CUL4A CTD [2] = test: Ligand binding by Micro-Scale Thermophoresis (MST); parameters: species or system human; conditions: ratio of Kd
# Experimental: as §1
# ROC1-CUL2 = ROC1-CUL2 (Homo sapiens (Human), UniProt Q13617); test: Gel-based di-Ub synthesis; format: biochemical; conditions: up to 150 μM
# H1299 = test: Apoptosis, Annexin V flow cytometry; format: cell-based; conditions: Homo sapiens, NCI-H1299; H1299, Lung
# In short: (§2)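 5×10^4 cells were seeded 24 h before treatment, then cultured with compound for 48 h. Pelleted cells were washed in Annexin V binding buffer (HEPES pH 7.4, with CaCl2) and stained in the dark with Annexin V-FITC (2 μg/ml) for 5 min. Apoptosis was read by flow cytometry.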
# HCT116 = test: Apoptosis, Annexin V flow cytometry; format: cell-based; conditions: Homo sapiens, HCT-116; HCT116, Colon
# In short: as §2
# K562 = test: Apoptosis, Annexin V flow cytometry; format: cell-based; conditions: Homo sapiens; K562, CML
# In short: as §2
# MDA-MB-231 = test: Apoptosis, Annexin V flow cytometry; format: cell-based; conditions: Homo sapiens; MDA-MB-231, Breast
# In short: as §2
# ML-2 = test: Apoptosis, Annexin V flow cytometry; format: cell-based; conditions: Homo sapiens; ML-2, AML
# In short: as §2
# MOLT-4 = test: Apoptosis, Annexin V flow cytometry; format: cell-based; conditions: Homo sapiens; MOLT-4, ALL
# In short: as §2
# MV4-11 = test: Apoptosis, Annexin V flow cytometry; format: cell-based; conditions: Homo sapiens; MV4-11, AML
# In short: as §2
# NB-4 = test: Apoptosis, Annexin V flow cytometry; format: cell-based; conditions: Homo sapiens; NB-4, AML
# In short: as §2
# THP-1 = test: Apoptosis, Annexin V flow cytometry; format: cell-based; conditions: Homo sapiens, THP-1, THP-1, AML
# In short: as §2
# U2OS = test: Apoptosis, Annexin V flow cytometry; format: cell-based; conditions: Homo sapiens, Bone
# In short: as §2
# Plasma stability = format: in vitro ADME; conditions: Human
# Experimental: (§3) ADME studies on compounds #33-11 and KH-4-43 for “absorption, distribution, metabolism, and excretion” were carried out at CRO, BioDuro. Kinetic solubility, plasma and microsome stability in rat, mouse and human, as well as Caco-2 Permeability were examined.
# Kinetic solubility = format: physicochemical; conditions: pH 7.4
# Experimental: as §3
# [3] = Mouse tolerance/toxicity study
# E3 (CUL4) = E3 (CUL4) (Homo sapiens (Human), UniProt Q13619); test: E3 (CUL4) inhibition (Table 1); format: biochemical
# In short: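 Two-step assay: Cdc34b-Ub thiol ester formation, then chase with ROC1-cullin mono-ubiquitination mix for 10 min at 37° C in 50 mM Tris-HCl pH 7.4, 0.5 mM DTT, 0.1 mg/ml BSA, 5 mM MgCl2, 2 mM ATP with compounds. 32P-Ub chain products resolved by SDS-PAGE and quantified by phospho-imaging.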
# tumor cell lines = test: Cytotoxicity in a subset of tumor cell lines; format: cell-based
# Experimental: Cells (5×10^4) were seeded 24 hours before compound treatment. Compound was added to the culture media and cells were cultured with the compound for 48 hours. The treated cells were then transferred into 5 ml flow cytometry tubes and the well was washed once with PBS to collect any remaining cells. The cells were then pelleted at 500×g for 5 min with a Beckman CS-6KR centrifuge at 4° C. After removal of supernatant, the cells pellet was washed with Annexin V binding buffer (10 mM Hepes-NaOH, pH 7.4, 150 mM NaCl, 5 mM KCl, 1 mM MgCl2, and 1.8 mM CaCl2). Cells were pelleted once again and incubated in the dark with Annexin V-FITC (2 μg/ml) in binding buffer for 5 min then analyzed using LSRFortessa flow cytometer (BD).
# For cell viability assay, 10,000 cells (per well) were seeded in 96 well plates in 100 microliters of media and incubated overnight. Serial dilutions of compounds tested were then added to wells in triplicate. The cells were incubated for an additional 48 hours. […] The luminescence of each well was then read using a Synergy multi-mode plate reader (BioTek). For determining relative luminescence, the background (average reading of wells containing only media and CellTiter-Glo reagent, no cells) was first subtracted from the reading of each sample. […] Then EC50 was determined using the four parameter logistics regression standard curve.
# [4] = Liver microsome stability; format: in vitro ADME
# Experimental: as §3
# Sequence of ROC1-CUL4A CTD (Homo sapiens (Human), UniProt Q13619) (Q13619 400-759): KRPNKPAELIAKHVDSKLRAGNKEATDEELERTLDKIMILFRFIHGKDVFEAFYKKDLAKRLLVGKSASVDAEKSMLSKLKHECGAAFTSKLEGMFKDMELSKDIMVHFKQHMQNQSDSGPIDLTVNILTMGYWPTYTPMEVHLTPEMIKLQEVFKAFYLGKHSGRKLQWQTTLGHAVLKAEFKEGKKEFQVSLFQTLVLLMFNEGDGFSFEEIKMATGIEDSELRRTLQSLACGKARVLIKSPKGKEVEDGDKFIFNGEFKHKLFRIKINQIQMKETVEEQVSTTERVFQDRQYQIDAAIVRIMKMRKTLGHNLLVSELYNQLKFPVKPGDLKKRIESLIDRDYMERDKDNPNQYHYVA
# Sequence of E3 (CUL4) (Q13619 whole entry): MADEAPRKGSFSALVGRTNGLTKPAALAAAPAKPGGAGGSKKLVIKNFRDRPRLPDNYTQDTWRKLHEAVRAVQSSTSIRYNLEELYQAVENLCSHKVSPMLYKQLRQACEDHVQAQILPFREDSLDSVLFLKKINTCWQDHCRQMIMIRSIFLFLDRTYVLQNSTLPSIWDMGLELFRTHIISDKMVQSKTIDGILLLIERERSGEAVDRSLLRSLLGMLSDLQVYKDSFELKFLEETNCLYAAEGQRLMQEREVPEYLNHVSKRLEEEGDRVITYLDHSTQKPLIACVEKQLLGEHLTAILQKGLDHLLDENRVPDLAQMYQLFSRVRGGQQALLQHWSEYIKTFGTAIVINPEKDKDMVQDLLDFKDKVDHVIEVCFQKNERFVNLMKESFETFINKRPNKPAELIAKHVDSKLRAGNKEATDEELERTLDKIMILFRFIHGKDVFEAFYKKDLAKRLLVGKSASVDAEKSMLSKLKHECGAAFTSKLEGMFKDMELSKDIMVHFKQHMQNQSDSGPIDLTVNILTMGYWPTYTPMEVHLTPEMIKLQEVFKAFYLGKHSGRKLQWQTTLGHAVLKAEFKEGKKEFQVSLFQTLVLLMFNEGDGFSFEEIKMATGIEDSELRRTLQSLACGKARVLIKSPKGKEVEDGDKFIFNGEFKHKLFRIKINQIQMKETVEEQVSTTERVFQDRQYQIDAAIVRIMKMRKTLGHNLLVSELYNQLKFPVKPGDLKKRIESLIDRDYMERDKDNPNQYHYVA
# Sequence of E3 (CUL4) (P62877 whole entry partner): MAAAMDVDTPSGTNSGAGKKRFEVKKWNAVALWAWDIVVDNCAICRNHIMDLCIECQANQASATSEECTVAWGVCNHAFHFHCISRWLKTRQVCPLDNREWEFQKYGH
# Sequence of ROC1-CUL4A (Q13619 39-759): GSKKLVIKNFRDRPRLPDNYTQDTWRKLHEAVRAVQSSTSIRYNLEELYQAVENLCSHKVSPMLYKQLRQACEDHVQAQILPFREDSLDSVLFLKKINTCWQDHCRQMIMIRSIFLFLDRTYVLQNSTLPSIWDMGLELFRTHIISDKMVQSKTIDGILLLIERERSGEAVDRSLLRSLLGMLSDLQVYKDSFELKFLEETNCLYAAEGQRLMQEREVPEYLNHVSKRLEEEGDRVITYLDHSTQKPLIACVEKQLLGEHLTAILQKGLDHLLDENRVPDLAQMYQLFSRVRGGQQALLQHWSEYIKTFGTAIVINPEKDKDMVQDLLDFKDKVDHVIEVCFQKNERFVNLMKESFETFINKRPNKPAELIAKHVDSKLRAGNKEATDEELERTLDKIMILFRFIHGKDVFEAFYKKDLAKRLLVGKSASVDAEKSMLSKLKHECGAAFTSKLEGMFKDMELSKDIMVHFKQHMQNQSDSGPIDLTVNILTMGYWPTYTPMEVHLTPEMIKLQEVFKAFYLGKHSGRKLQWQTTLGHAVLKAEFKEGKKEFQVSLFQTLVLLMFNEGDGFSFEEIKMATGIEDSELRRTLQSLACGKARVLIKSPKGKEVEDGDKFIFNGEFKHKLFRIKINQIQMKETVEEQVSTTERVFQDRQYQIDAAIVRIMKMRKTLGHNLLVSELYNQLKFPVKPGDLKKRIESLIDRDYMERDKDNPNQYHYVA
# Sequence of ROC1-CUL4A (P62877 15-108 partner): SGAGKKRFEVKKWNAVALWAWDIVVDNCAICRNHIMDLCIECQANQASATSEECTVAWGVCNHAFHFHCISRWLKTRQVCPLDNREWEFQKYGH
# Sequence of ROC1-CUL1 (Q13616 whole entry): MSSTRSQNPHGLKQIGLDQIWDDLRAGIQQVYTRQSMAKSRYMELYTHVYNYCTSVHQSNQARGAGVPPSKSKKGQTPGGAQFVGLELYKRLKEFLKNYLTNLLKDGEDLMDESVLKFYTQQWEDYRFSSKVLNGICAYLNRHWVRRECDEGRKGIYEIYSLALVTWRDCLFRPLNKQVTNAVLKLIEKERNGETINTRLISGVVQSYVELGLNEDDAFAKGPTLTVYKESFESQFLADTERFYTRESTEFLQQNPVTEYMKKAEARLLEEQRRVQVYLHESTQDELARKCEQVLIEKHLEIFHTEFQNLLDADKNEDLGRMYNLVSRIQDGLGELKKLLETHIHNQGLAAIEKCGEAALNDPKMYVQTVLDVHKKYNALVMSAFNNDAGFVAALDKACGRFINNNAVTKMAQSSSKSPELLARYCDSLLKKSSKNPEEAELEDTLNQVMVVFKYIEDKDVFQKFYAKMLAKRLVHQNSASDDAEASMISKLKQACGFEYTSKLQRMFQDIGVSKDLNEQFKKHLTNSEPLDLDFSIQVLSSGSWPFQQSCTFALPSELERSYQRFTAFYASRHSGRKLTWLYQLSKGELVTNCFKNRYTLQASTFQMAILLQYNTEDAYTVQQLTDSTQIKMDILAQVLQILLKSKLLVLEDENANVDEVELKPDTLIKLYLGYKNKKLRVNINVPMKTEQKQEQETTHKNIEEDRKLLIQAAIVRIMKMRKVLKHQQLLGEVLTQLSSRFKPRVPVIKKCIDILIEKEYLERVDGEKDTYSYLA
# Sequence of ROC1-CUL1 (P62877 whole entry partner): as the sequence (P62877 whole entry partner) above
# Sequence of ROC1-CUL2 (Q13617 whole entry): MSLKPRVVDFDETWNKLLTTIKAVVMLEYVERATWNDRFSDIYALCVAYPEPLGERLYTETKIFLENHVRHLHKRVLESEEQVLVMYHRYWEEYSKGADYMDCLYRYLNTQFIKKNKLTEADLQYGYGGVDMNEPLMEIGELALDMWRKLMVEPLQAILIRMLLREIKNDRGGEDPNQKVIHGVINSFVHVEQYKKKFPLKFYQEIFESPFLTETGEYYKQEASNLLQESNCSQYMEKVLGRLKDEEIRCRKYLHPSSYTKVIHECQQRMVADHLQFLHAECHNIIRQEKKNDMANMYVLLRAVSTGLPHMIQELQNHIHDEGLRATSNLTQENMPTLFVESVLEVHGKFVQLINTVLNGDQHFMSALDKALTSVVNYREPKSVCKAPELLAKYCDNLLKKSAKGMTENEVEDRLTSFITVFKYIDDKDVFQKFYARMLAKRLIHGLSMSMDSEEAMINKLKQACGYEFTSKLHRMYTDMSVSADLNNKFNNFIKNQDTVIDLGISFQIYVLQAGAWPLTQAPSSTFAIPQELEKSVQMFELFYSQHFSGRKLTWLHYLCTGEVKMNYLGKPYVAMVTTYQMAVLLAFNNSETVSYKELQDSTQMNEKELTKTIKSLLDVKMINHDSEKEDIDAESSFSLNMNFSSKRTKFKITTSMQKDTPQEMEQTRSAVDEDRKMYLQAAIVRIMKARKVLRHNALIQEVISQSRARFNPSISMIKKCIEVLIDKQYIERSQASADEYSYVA
# Sequence of ROC1-CUL2 (P62877 whole entry partner): as the sequence (P62877 whole entry partner) above
structure (smiles),measurement,setting,value
"O=c1c(-c2cnn(-c3ccccc3)c2)c(C(F)(F)F)oc2c(O)c(O)ccc12 [#33-11, 7,8-dihydroxy-3-(1-phenyl-1H-pyrazol-4-yl)-2-(trifluoromethyl)-4H-chromen-4-one]",E3 CRL4 Relative Inhibition,ROC1-CUL4A,37%
same,effect on levels of CUL1-32P-Ub,ROC1-CUL1,little effects
same,Kd,ROC1-CUL4A CTD [1],0.223 µM
same,binding to ROC1-CUL4A CTD more effectively than ROC1-CUL1 CTD,ROC1-CUL4A CTD [2],~20 fold
same,level of di-Ub product,ROC1-CUL2,remained almost unchanged
same,EC50,H1299,~81 µM
same,EC50,HCT116,~58 µM
same,EC50,K562,~54 µM
same,EC50,MDA-MB-231,> 100 µM
same,EC50,ML-2,~14 µM
same,EC50,MOLT-4,~5 µM
same,EC50,MV4-11,~13 µM
same,EC50,NB-4,~7 µM
same,EC50,THP-1,14 µM
same,EC50,U2OS,~78 µM
same,Plasma Stability: t1/2,Plasma stability,>8.33 h
same,"Kinetic solubility, rating",Kinetic solubility,moderate solubility
same,necropsy findings,[3]; 50 mg/kg,no adverse effects
same,body weight loss,"[3]; 50 mg/kg IP daily, 7 days",no significant body weight loss
"O=c1c(-c2cnn(-c3ccc(Cl)cc3)c2)c(C(F)(F)F)oc2c(O)c(O)ccc12 [KH-4-43, 3-(1-(4-chlorophenyl)-1H-pyrazol-4-yl)-7,8-dihydroxy-2-(trifluoromethyl)-4H-chromen-4-one]",EC50,E3 (CUL4),10 µM
same,EC50,tumor cell lines,~2 µM
same,Liver microsomes: t1/2,[4]; Human,>8.33 h
same,Liver microsomes: t1/2,[4]; Rat,>8.33 h
